Laboratory results reported in the supplement of paper PMC7695840.
Where a name gives a salt, the structure may show the parent alone.

Legend:
[1] = system: Staphylococcus aureus MW2 (mecA+); assay: IC50 (growth, competition assay); conditions: cefoxitin: subinhibitory
How it was run: (§1)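 Signals from DsRed (540/590) and GFP (485/520) were scaled on every plate between single-strain control medians, with No Treatment then set to 0.5. The cells were a 1:1 mix of pre-induced fluorescent S. aureus MW2 strains with and without the resistance gene, grown unshaken for 20 h at 37 °C and 90% humidity in LB in 1536-well plates under a subinhibitory drug dose set each day. Each strain's IC50 was defined as the dose halving the No Treatment signal, or the maximal signal.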

[2] = system: Staphylococcus aureus MW2 delta-mecA (mecA-); assay: IC50 (growth, competition assay); conditions: cefoxitin: subinhibitory
How it was run: as §1

SMILES	IC50 ([1]; fluorescent label: DsRed)	IC50 ([1]; fluorescent label: GFP)	IC50 ([2]; fluorescent label: DsRed)	IC50 ([2]; fluorescent label: GFP)
C[C@H](Oc1cc(-c2cnn(C3CCNCC3)c2)cnc1N)c1c(Cl)ccc(F)c1Cl [(S)-crizotinib]	75 µM	101 µM	< 9.85 µM	< 9.85 µM
CN(C)C(=S)SSC(=S)N(C)C [REZIFILM]	33.4 µM	63.6 µM	18.2 µM	23.6 µM
CCCCC(CC)CN=C(N)N=C(N)NCCCCCCNC(N)=NC(N)=NCC(CC)CCCC (stereo not drawn) [ALEXIDINE HYDROCHLORIDE]	< 9.85 µM	< 9.85 µM	< 9.85 µM	< 9.85 µM
C[C@H]1COC2=C1C(=O)C(=O)c1c2ccc2c1CCCC2(C)C [Cryptotanshinone]	12.1 µM	19.2 µM	< 9.85 µM	< 9.85 µM
Clc1ccc(C(Cn2ccnc2)OCc2ccsc2Cl)c(Cl)c1 (stereo not drawn) [Tioconazole]	29.7 µM	17.8 µM	3.9 µM	14.2 µM
Oc1ccc(Cl)cc1Cc1cc(Cl)ccc1O [DICHLOROPHEN]	< 9.85 µM	< 9.85 µM	< 9.85 µM	< 9.85 µM
CCC(Cc1c(I)cc(I)c(N)c1I)C(=O)O (stereo not drawn) [TELEPAQUE]	10.4 µM	27.5 µM	< 9.85 µM	< 9.85 µM
C[C@H]1COC2=C1C(=O)C(=O)c1c2ccc2c1CCCC2(C)C [CRYPTOTANSHINONE]	13 µM	15.7 µM	11.3 µM	10.5 µM
C[C@H](Cc1ccc(O)c(O)c1)[C@@H](C)Cc1ccc(O)c(O)c1	33.4 µM	57.9 µM	< 9.85 µM	< 9.85 µM
O=C(/C=C/c1ccccc1)c1ccc(O)cc1O [2',4'-DIHYDROXYCHALCONE]	91.7 µM	111 µM	18.7 µM	17.1 µM
COC(=O)C1=C(C)NC(C)=C(C(=O)OCC(C)C)C1c1ccccc1[N+](=O)[O-] (stereo not drawn) [Nisoldipine]	63.1 µM	99.2 µM	12.7 µM	7.55 µM
CN1CCN(CCCN2c3ccccc3Sc3ccc(Cl)cc32)CC1 [Prochlorperazine dimaleate]	56.2 µM	54.5 µM	21.5 µM	18 µM
CC(C)(C)c1cc(C=C(C#N)C#N)cc(C(C)(C)C)c1O [Tyrphostin A9]	< 9.85 µM	26 µM	35.4 µM	< 9.85 µM
Cc1cc(N)c2ccccc2[n+]1CCCCCCCCCC[n+]1c(C)cc(N)c2ccccc21 [Dequalinium chloride hydrate]	< 9.85 µM	< 9.85 µM	< 9.85 µM	< 9.85 µM
C[C@@H](NCCCc1cccc(C(F)(F)F)c1)c1cccc2ccccc12 [AMG-073 HCl (Cinacalcet hydrochloride)]	48.8 µM	54.9 µM	13.4 µM	< 9.85 µM
CC(C)(c1ccc(O)cc1)c1ccc(O)cc1 [BISPHENOL A]	42.4 µM	64.7 µM	< 9.85 µM	< 9.85 µM
O=C(/C=C/c1ccc(O)c(O)c1)c1ccc(O)cc1O [Butein]	92.3 µM	98.5 µM	21.3 µM	30.4 µM
CO/N=C(\C(=O)N[C@@H]1C(=O)N2C(C(=O)O)=C(COC(C)=O)CS[C@H]12)c1csc(N)n1 [Cefotaxime sodium]	< 9.85 µM	< 9.85 µM	< 9.85 µM	< 9.85 µM
N[C@@H]1CN(c2c(F)cc3c(=O)c(C(=O)O)cn([C@@H]4C[C@@H]4F)c3c2Cl)CC12CC2 [Sitafloxacin hydrate]	< 0.498 µM	< 0.498 µM	< 0.498 µM	< 0.498 µM

SMILES	IC50 ([1]; fluorescent label: DsRed)	IC50 ([1]; fluorescent label: GFP)	IC50 ([2]; fluorescent label: DsRed)	IC50 ([2]; fluorescent label: GFP)
Cc1cc(Nc2nc(N[C@@H](C)c3ccc(F)cc3)c(C#N)cc2F)n[nH]1 [AZ 960]	110 µM	112 µM	2.4 µM	1.67 µM
CC(=O)O[C@H]1C[C@@]2(C)[C@@H](C[C@@H](O)[C@H]3[C@@]4(C)CC[C@@H](O)[C@@H](C)[C@@H]4CC[C@@]32C)/C1=C(\CCC=C(C)C)C(=O)O [FUCIDINE]	< 9.85 µM	< 9.85 µM	< 9.85 µM	< 9.85 µM
CC(=O)NC1CCSC1=O (stereo not drawn) [CITIOLASE]	56.8 µM	10.2 µM	12.4 µM	38.9 µM
CC(=O)Oc1ccccc1C(=O)Nc1ncc([N+](=O)[O-])s1 [Nitazoxanide (Alinia, Annita)]	55.5 µM	57.6 µM	21.9 µM	24.9 µM
O=S(=O)(O)c1cc(I)c(O)c2ncccc12 [YATREN]	84.9 µM	102 µM	49.8 µM	59.8 µM
N[C@@H](C(=O)N[C@@H]1C(=O)N2C(C(=O)O)=C(Cl)CS[C@H]12)c1ccccc1 [Cefaclor]	< 9.85 µM	< 9.85 µM	< 9.85 µM	< 9.85 µM
Nc1nc(/C(=C/CC(=O)O)C(=O)N[C@@H]2C(=O)N3C(C(=O)O)=CCS[C@H]23)cs1 [CEDAX]	18.2 µM	18.9 µM	< 9.85 µM	< 9.85 µM
CNCCCC12CCC(c3ccccc31)c1ccccc12 [LUDIOLMIL]	> 150 µM	134 µM	31.2 µM	48.5 µM
CCCCc1oc2ccc(NS(C)(=O)=O)cc2c1C(=O)c1ccc(OCCCN(CCCC)CCCC)cc1 [Dronedarone HCl (Multaq)]	14.3 µM	14.9 µM	5.95 µM	3.07 µM
CC=CC1=C(C(=O)O)N2C(=O)[C@@H](NC(=O)[C@H](N)c3ccc(O)cc3)[C@H]2SC1 [CEFZIL]	113 µM	109 µM	< 9.85 µM	< 9.85 µM
CCOC(=O)C1=C(C)NC(C)=C(C(=O)OC)C1c1cccc(Cl)c1Cl (stereo not drawn) [Felodipine]	27.8 µM	32.3 µM	< 9.85 µM	< 9.85 µM
CO/N=C(\C(=O)N[C@@H]1C(=O)N2C(C(=O)OCOC(=O)C(C)(C)C)=C(/C=C\c3scnc3C)CS[C@H]12)c1csc(N)n1 [Cefditoren pivoxil]	16.7 µM	13.3 µM	< 0.498 µM	< 0.498 µM
OCc1ccc(-c2ccc(-c3ccc(CO)s3)o2)s1	22.4 µM	33.5 µM	< 9.85 µM	< 9.85 µM
O=C(O)CCCCC(CCSCc1ccccc1)SCc1ccccc1 (stereo not drawn) [CPI-613]	15.5 µM	15 µM	< 9.85 µM	< 9.85 µM
C[C@H]1COc2c(C3(N)CC3)c(F)cc3c(=O)c(C(=O)O)cn1c23 [PAZUCROSS]	< 9.85 µM	< 9.85 µM	< 9.85 µM	< 9.85 µM
CC[C@H]1OC(=O)[C@H](C)[C@@H](O[C@H]2C[C@@](C)(OC)[C@@H](O)[C@H](C)O2)[C@H](C)[C@@H](O[C@@H]2O[C@H](C)C[C@H](N(C)C)[C@H]2O)[C@](C)(O)C[C@@H](C)C(=O)[C@H](C)[C@@H](O)[C@]1(C)O [Erythromycin (E-Mycin)]	1.42 µM	1.62 µM	< 0.498 µM	< 0.498 µM
C[C@@H](O)[C@H]1C(=O)N2C(C(=O)[O-])=C(SC3Cn4cnc[n+]4C3)[C@H](C)[C@H]12 (stereo partly drawn) [Biapenem]	104 µM	112 µM	31.4 µM	24.7 µM
CNCc1ccc(C)c(NC(=O)c2ccc(Nc3nc(-c4ccccc4)c4ccccc4n3)cc2)c1	15.9 µM	14.5 µM	< 9.85 µM	< 9.85 µM
